Results published in article PMC11413854, “Reversible Control of Native GluN2B-Containing NMDA Receptors with Visible Light” (ACS Chemical Neuroscience, 2024).
Values joined by “and” are separate entries in the source; they are usually repeats but may differ in a detail not shown here. Identical values can stand only once. Like-named read-outs stand apart in the source and are kept apart here.

Experiments:
[1] = biological target: T1, GluN1/GluN2D (Rattus norvegicus, UniProt P35439+Q62645); assay: TEVC on Xenopus oocytes, GluN1/GluN2D diheteromers; assay type: cell-based; settings: 1 µM trans-OptoNAM-3 (dark); listed as trans-OptoNAM-3
T1 construct: expressed in transfected cells; host or cells: Xenopus laevis oocytes (nuclear cDNA injection)
T1 sequence (Q62645 28-1323, other chains not shown): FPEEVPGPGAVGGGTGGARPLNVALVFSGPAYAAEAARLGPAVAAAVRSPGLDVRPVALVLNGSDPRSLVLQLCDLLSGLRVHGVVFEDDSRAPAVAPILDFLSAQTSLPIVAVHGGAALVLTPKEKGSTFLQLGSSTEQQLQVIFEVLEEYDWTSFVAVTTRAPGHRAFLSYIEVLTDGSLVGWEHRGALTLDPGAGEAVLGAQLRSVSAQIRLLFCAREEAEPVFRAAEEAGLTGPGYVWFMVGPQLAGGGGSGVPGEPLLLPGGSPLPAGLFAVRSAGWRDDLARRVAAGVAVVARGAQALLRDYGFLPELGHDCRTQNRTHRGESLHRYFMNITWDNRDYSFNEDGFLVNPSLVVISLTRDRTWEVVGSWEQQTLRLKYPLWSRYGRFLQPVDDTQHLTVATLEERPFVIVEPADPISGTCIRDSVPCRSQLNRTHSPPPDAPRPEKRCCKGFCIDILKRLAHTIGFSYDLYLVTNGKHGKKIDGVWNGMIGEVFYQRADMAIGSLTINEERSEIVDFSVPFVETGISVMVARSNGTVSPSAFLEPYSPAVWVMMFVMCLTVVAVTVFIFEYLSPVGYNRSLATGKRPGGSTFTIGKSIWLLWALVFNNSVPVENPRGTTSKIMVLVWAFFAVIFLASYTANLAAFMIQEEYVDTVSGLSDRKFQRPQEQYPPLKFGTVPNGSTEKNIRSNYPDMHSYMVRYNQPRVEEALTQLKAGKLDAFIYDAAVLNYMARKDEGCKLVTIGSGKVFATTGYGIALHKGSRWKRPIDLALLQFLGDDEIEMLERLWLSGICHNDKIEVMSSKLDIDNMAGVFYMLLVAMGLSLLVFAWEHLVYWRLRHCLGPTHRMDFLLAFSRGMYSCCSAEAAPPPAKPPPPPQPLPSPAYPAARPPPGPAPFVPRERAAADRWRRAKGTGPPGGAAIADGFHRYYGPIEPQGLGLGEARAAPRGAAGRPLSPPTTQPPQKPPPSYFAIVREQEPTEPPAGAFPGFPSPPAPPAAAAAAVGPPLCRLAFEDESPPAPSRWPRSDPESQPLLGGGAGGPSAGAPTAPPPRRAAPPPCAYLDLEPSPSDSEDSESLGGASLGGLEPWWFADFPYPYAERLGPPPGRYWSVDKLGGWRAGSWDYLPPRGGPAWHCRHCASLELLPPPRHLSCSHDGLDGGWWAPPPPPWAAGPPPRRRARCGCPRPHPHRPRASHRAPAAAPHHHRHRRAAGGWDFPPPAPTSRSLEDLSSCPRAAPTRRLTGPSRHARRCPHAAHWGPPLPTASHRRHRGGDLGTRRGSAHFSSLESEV
Source text: NMDARs exist as multiple subtypes in the brain that are formed by the combination of two GluN1 and either two identical (diheteromers) or different (triheteromers) GluN2 (GluN2A-D) subunits.[1] We assessed the selectivity of trans-OptoNAM-3 (dark PSS) for the other NMDAR subtypes.
(§1) We used cDNA coding for rat GluN1–1a (named GluN1 herein) (GenBank: U08261.1), rat GluN2A (GenBank: D13211.1), mouse GluN2B (GenBank: D10651.2), rat GluA1 flop (GenBank: M36418.2), and rat Myc-GluA2(Q)-flip (GenBank: AF164344.1) cloned into pcDNA3-based expression plasmids. GluK2 (GenBank: Z11548.1) corresponds to the fully RNA-edited version.[80] The GluN2B-ΔNTD construct is from ref[45] and GluN2B–N615K is from ref[81]. Single mutants GluN2B-Q110G and GluN1-L135H were from ref[19]. The GluA2 cDNA contains a Myc tag ([…]) fused between the signal peptide and the N-terminus sequences, and the GluA2 subunit is […] for its Q/R/N site (GluA2(Q)) to allow permeation of homomeric GluA2 receptors.[2] cDNAs coding for rat GluN2C (GenBank: M91563.1) and GluN2D subunits (GenBank: L31611.1) were in prK5 plasmids.
Expression of recombinant NMDA receptors was obtained by oocyte nuclear coinjection of 37 nL of a mixture of cDNAs (at 30 ng/μL) coding for GluN1–1a and various GluN2 subunits (ratio 1:1). The protocol in ref[43] was followed for the expression of GluN1/GluN2A/GluN2B triheteromers. […]

[2] = biological target: T2, GluA1 AMPA receptors (Rattus norvegicus, UniProt P19490); assay: TEVC on Xenopus oocytes, GluA1 AMPA receptors; assay type: cell-based; settings: for Inhibition, individual values: GluA1, single cells
T2 construct: expressed in transfected cells; host or cells: Xenopus laevis oocytes (mRNA injection)
T2 sequence (P19490 19-907): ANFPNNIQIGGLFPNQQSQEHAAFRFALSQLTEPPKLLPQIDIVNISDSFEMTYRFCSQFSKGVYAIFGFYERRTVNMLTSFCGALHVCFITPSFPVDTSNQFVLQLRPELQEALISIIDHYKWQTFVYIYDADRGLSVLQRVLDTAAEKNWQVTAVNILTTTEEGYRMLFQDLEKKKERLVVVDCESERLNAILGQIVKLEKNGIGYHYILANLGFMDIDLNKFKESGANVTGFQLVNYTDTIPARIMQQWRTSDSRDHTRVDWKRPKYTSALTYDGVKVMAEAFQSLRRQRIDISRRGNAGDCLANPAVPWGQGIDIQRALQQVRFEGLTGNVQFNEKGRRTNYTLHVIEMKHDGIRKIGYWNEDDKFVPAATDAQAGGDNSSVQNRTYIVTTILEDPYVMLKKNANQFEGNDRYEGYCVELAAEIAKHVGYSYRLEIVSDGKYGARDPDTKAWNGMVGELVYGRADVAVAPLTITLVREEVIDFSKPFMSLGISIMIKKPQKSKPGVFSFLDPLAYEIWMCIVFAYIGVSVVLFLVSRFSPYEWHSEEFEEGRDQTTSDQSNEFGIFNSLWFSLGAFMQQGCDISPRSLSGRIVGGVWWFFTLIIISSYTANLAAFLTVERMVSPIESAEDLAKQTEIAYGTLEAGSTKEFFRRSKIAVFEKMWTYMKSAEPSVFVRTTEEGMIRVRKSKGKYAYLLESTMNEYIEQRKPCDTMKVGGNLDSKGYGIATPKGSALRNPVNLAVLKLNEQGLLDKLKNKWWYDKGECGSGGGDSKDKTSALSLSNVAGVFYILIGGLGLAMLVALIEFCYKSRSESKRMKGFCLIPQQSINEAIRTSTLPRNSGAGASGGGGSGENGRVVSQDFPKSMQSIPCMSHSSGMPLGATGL
Source text: as §1
The expression of recombinant GluA1, GluA2(Q), and GluK2 receptors was obtained by oocyte injection of 50 nL of mRNAs (at 1 μg/μL). mRNAs were generated using the T7 (GluA1 and GluA2) and T3 (GluK2) mMessage mMachine transcription kits (Invitrogen) after cDNA linearization with the SacII restriction enzyme. The injected oocytes were stored in the same conditions as for NMDARs and used 72–96 h postinjection.
TEVC recordings were performed 1–3 days following injection. TEVC recordings were performed using an Oocyte Clamp amplifier OC-725 (Warner Instruments) and computer-controlled via a 1440A Digidata (Molecular Devices). Currents were sampled at 100 Hz and low-pass-filtered at 20 Hz using an 8-pole Bessel filter (900 Series, Frequency Devices Inc.). Data were collected with Clampfit 10.3. During the recording, the cells were continuously perfused with external recording Ringer solution at pH 7.3 (in mM: 100 NaCl, 0.3 BaCl2, 5 HEPES, and 2.5 KCl, pH adjustment to 7.3 by the addition of NaOH). The NMDA currents were induced by simultaneous application of L-glutamate and glycine (agonist solution) at saturating concentration (100 μM each), and DTPA (10 μM) to prevent receptor inhibition by ambient zinc (∼20 nM).[83] A control solution (100 μM glycine and 10 μM DTPA in Ringer pH 7.3) was used for washout of drug and test solutions. AMPA and kainate receptor currents were induced in the same conditions as NMDA currents (100 μM glutamate and glycine + 10 μM DTPA). Oocytes expressing GluK2 kainate receptors were treated with concanavalin A ([…], equivalent to 1.1 mg/mL) during 10 min before recording to decrease receptor desensitization. Unless notified, recordings were performed at a holding potential of −60 mV. All experiments were performed at room temperature. […]

inhibition of GluN1/GluN2D [1]: 2.2% ± 0.2% | inhibition at 10 µM ([2]; 10 µM OptoNAM-3 365 nm PSS, construct GluA1, read-out: Inhibition (%)): -6% | Inhibition, individual values ([2]; 10 µM OptoNAM-3 dark PSS (trans) as headed, second block): -0.02846 and -0.1048 and -0.04691 | Inhibition, individual values ([2]; 10 µM OptoNAM-3 dark PSS (trans), first block): -0.02273 and -0.0986 and -0.1111 | inhibition at 10 µM ([2]; 10 µM OptoNAM-3 dark PSS (trans), construct GluA1, read-out: Inhibition (%)): -7.7% | inhibition of GluA1 currents ([2]; 10 µM, dark PSS): no effect | inhibition at 10 µM ([2]; 10 µM, dark PSS, read-out: inhibition of GluA1 currents): -7.4 ± 2.7%
Structure (SMILES): c1ccc(/N=N/c2ccc(CCNc3ccncc3)cc2)cc1 [OptoNAM-3, (E)-N-(4-(Phenyldiazenyl)phenethyl)pyridin-4-amine]
